Source: publication PMC8658889, “Seriniquinones as Therapeutic Leads for Treatment of BRAF and NRAS Mutant Melanomas” (Molecules, 2021)

What was measured:
Assay type in all cases: cell-based, Human
[1] = test system: SK-MEL-28; test: Clonogenic assay; conditions: SK-MEL-28, 24 h treatment at half IC50 and IC50, 6 days in drug-free medium
Method: […] (2.5 × 10^5) cells in 1 mL of media were seeded in cell culture dishes and, 24 h later, treated with SQ1 (0.3 µM and 0.6 µM for SK-MEL-28 and 0.9 µM and 1.8 µM for SK-MEL-147) or SQ2 (0.05 µM and 0.1 µM for SK-MEL-28 and 0.6 µM and 1.2 µM for SK-MEL-147) for 24 h. Doxorubicin (DOX; 1.4 µM for SK-MEL-28 and 0.8 µM for SK-MEL-147) was used as positive control and 0.5% DMSO as negative control.
After the cells were submitted to the treatment scheme (Section 4.6), adherent cells were collected, plated at 1 × 10^3 cell/plate on 35-mm plates and maintained in culture for 6 days in treatment-free medium. The medium was replaced every 2 days. Cells were then fixed and stained with a solution of 20% MeOH (Synth, Diadema, São Paulo, Brazil) and 0.5 g crystal violet (Sigma-Aldrich, St. Louis, MO, USA). Images were acquired using G:BOX Chemi XRQ (Syngene, Cambridge, UK) and quantified using the ImageJ program (ColonyArea; US National Institutes of Health, Bethesda, MD, USA).

[2] = test system: 501mel; test: MTT cytotoxicity assay; conditions: for IC50: Homo sapiens, 501mel, 72 h treatment, MTT
Excerpt: (§1) Human cell lines were used throughout this program. SK-MEL-19 (melanoma BRAF^V600E, NRAS^WT), SK-MEL-28 (melanoma BRAF^V600E, NRAS^WT), SK-MEL-147 (melanoma BRAF^WT, NRAS^Q61R), MRC-5 (fibroblasts), and primary fibroblast (FDH) were kindly provided by Professor Glaucia Santelli (University of São Paulo, Brazil). MCF7 (breast adenocarcinoma, ATCC HTB-22), and HCT-116 (colorectal carcinoma, ATCC 247) cells were obtained from American Type Culture Collection (ATCC) and deposited in the Cell Bank of Rio de Janeiro, Brazil. WM293A (metastatic melanoma BRAF^V600D, NRAS^WT), 501mel (metastatic melanoma BRAF^V600E; NRAS^G12D), and MM200 (melanoma BRAF^V600E, NRAS^WT) were kindly provided by Professor Sharon Prince, University of Cape Town, South Africa. All human melanoma and breast cell lines were cultivated with Dulbecco’s Modified Eagle Medium: Nutrient Mixture F-12 (Thermo Fisher Scientific, San Jose, CA, USA). MM200 and HCT-116 were maintained with Roswell Park Memorial Institute (RPMI) medium (Thermo Fisher Scientific, San Jose, CA, USA). Unless stated otherwise, media was supplemented with 10% fetal bovine serum (FBS) and 1% penicillin-streptomycin (Thermo Fisher Scientific, San Jose, CA, USA). Cells were incubated with 5% CO2 at 37 °C. When required, cells were detached from flask using trypsin-EDTA 0.05% (Thermo Fisher Scientific, San Jose, CA, USA).
(§2) Cytotoxic activity was evaluated by the transformation of 3-(4,5-dimethylthiazol-2-yl)-2,5-diphenyltetrazolium bromide (MTT; Thermo Fisher Scientific, San Jose, CA, USA) into formazan by viable cells. Cells were plated in a 96-well plate (1 × 10^4 cells/well) and, 24 h later, exposed to serial dilutions of the test compounds (from 0.00032 to 5.0 µM) for 24, 48, and 72 h. For each analysis, negative controls received 0.5% DMSO and positive control was delivered by doxorubicin (DOX; 0.05 to 10.0 µM). At the end of the incubation periods, the medium was replaced with fresh medium containing 0.5 mg/mL of MTT and supernatant was removed 3 h later. The plates were dried at 50 °C for 30 min and formazan was solubilized in DMSO (150 µL/well) for the absorbance measure at 570 nm on a plate reader (Thermo Fisher Scientific, San Jose, CA, USA). IC50 values (half-maximal inhibitory concentration) along with 95% CI (confidence intervals) were calculated by non-linear regression using GraphPad Prism 8.0 software (GraphPad Software, Inc., San Diego, CA, USA).

[3] = test system: FDH; test: MTT cytotoxicity assay; conditions: FDH primary fibroblasts, 72 h treatment
Excerpt: as §1, §2

[4] = test system: MM200; test: MTT cytotoxicity assay; conditions: for IC50: MM200, 72 h treatment, MTT
Excerpt: as §1, §2

[5] = test system: MCF7; test: MTT cytotoxicity assay; conditions: for IC50: Homo sapiens, MCF7, 72 h treatment, MTT
Excerpt: as §1, §2

[6] = test system: WM293A; test: MTT cytotoxicity assay; conditions: for IC50: Homo sapiens, WM293A, 72 h treatment, MTT
Excerpt: as §1, §2

[7] = test system: HCT-116; test: MTT cytotoxicity assay; conditions: for IC50: Homo sapiens, HCT-116, 72 h treatment, MTT
Excerpt: as §1, §2

[8] = test system: SK-MEL-147; test: MTT cytotoxicity assay; conditions: for IC50: Homo sapiens
Excerpt: as §1, §2

[9] = test system: SK-MEL-19; test: MTT cytotoxicity assay; conditions: for IC50: Homo sapiens, SK-MEL19, SK-MEL-19, 72 h treatment, MTT
Excerpt: as §1, §2

[10] = test system: SK-MEL-28; test: MTT cytotoxicity assay; conditions: for IC50: Homo sapiens
Excerpt: as §1, §2

[11] = test system: melanoma cells; test: MTT cytotoxicity assay, melanoma panel
Excerpt: as §1, §2

[12] = 501mel versus FDH, 72-h IC50 ratio
[13] = 501mel versus MRC-5, 72-h IC50 ratio
[14] = MM200 versus FDH, 72-h IC50 ratio
[15] = MM200 versus MRC-5, 72-h IC50 ratio
[16] = MCF7 versus FDH, 72-h IC50 ratio
[17] = MCF7 versus MRC-5, 72-h IC50 ratio
[18] = WM293A versus FDH, 72-h IC50 ratio
[19] = WM293A versus MRC-5, 72-h IC50 ratio
[20] = HCT-116 versus FDH, 72-h IC50 ratio
[21] = HCT-116 versus MRC-5, 72-h IC50 ratio
[22] = SK-MEL-147, 24 h, SK-MEL-147, 24h treatment, MTT
[23] = SK-MEL-147, 48 h, SK-MEL-147, 48h treatment, MTT
[24] = SK-MEL-147, 72 h, SK-MEL-147, 72 h treatment, MTT
[25] = SK-MEL-147, SK-MEL-147, 24h treatment, 1h pre-treated with 30 nM bafilomycin A1
[26] = SK-MEL-147, SK-MEL-147, 24h treatment, 1h pre-treated with 20 µM Z-VAD-FMK
[27] = SK-MEL-147, SK-MEL-147, 24h treatment, no pre-treatment (Table S4)
[28] = SK-MEL-147 versus FDH, 72-h IC50 ratio
[29] = SK-MEL-147 versus MRC-5, 72-h IC50 ratio
[30] = SK-MEL-19 versus FDH, 72-h IC50 ratio
[31] = SK-MEL-19 versus MRC-5, 72-h IC50 ratio
[32] = SK-MEL-28, 24 h, SK-MEL-28, 24h treatment, MTT
[33] = SK-MEL-28, 48 h, SK-MEL-28, 48h treatment, MTT
[34] = SK-MEL-28, 72 h, SK-MEL-28, 72 h treatment, MTT
[35] = SK-MEL-28, SK-MEL-28, 24h treatment, 1h pre-treated with 30 nM bafilomycin A1
[36] = SK-MEL-28, SK-MEL-28, 24h treatment, 1h pre-treated with 20 µM Z-VAD-FMK
[37] = SK-MEL-28, SK-MEL-28, 24h treatment, no pre-treatment (Table S4)
[38] = SK-MEL-28 versus FDH, 72-h IC50 ratio
[39] = SK-MEL-28 versus MRC-5, 72-h IC50 ratio

Row | Structure (SMILES) | Selectivity Index (SI) [2, 12] | Selectivity Index (SI) [2, 13] | IC50 [2] | IC50 ([3]; Homo sapiens, Fibroblast, 72 h) | IC50 ([4]; Homo sapiens, 72 h) | Selectivity Index (SI) [4, 14] | Selectivity Index (SI) [4, 15] | IC50 [5] | Selectivity Index (SI) [5, 16] | Selectivity Index (SI) [5, 17] | IC50 [6] | Selectivity Index (SI) [6, 18] | Selectivity Index (SI) [6, 19] | Selectivity Index (SI) [7, 20] | Selectivity Index (SI) [7, 21] | IC50 [7] | IC50 [8, 22] | IC50 [8, 23] | IC50 [8, 24] | IC50 [8, 25] | also measured
1 | O=c1c2ccccc2c(=O)c2c1sc1c(=O)c3ccccc3c(=O)c12 [SQ1, seriniquinone] | 3.6 | 2.0 | 320 nM | 1150 nM | 1360 nM | 0.8 | 0.5 | 3300 nM | 0.3 | 0.2 | 1050 nM | 1.1 | 0.6 | 1.1 | 0.6 | 1000 nM | 1790 nM | 1610 nM | 130 nM | 2260 nM | reduction of the colony levels [1]: greater than 50%; IC50 [3]: 1200 nM; IC50 [4]: 1400 nM; IC50 [8, 26]: 1890 nM; IC50 [8, 27]: 1640 nM; Selectivity Index (SI) [8, 28]: 8.8; Selectivity Index (SI) [8, 29]: 4.9; IC50 [9]: 60 nM; Selectivity Index (SI) [9, 30]: 19.2; Selectivity Index (SI) [9, 31]: 10.7; IC50 [10, 32]: 560 nM; IC50 [10, 33]: 690 nM; IC50 [10, 34]: 150 nM; IC50 [10, 35]: 140 nM; IC50 [10, 36]: 700 nM; IC50 [10, 37]: 350 nM; Selectivity Index (SI) [10, 38]: 7.7; Selectivity Index (SI) [10, 39]: 4.3
2 | CC(C)(O)C(O)CCc1ccc2c(=O)c3sc4c(=O)c5ccccc5c(=O)c4c3c(=O)c2c1 (stereo not drawn) [SQ2] | 10.6 | 14.3 | 110 nM | 1170 nM | 750 nM | 1.6 | 2.1 | 730 nM | 1.6 | 2.2 | 740 nM | 1.6 | 2.1 | 5.1 | 6.8 | 230 nM | 1260 nM | 890 nM | 100 nM | 1180 nM | selectivity indices to SK-Mel cells in relation to non-tumor cell lines ([11]; SK-Mel cells versus non-tumor cell lines): ≥ twofold; selectivity for melanoma cells (SI ratio) ([11]; melanoma cells versus non-tumor cell lines MRC-5 or FDH, highest values reached): 30–40; IC50 [8, 26]: 1280 nM; IC50 [8, 27]: 910 nM; Selectivity Index (SI) [8, 28]: 11.7; Selectivity Index (SI) [8, 29]: 15.7; IC50 [9]: 40 nM; Selectivity Index (SI) [9, 30]: 29.3; Selectivity Index (SI) [9, 31]: 39.3; IC50 [10, 32]: 140 nM; IC50 [10, 33]: 260 nM; IC50 [10, 34]: 40 nM; IC50 [10, 35]: 60 nM; IC50 [10, 36]: 370 nM; IC50 [10, 37]: 240 nM; Selectivity Index (SI) [10, 38]: 29.3; Selectivity Index (SI) [10, 39]: 39.3
